According to patent US9180159B2, “Use of cell-permeable peptide inhibitors of the JNK signal transduction pathway for the treatment of chronic or non-chronic inflammatory digestive diseases” (Xigen Inflammation Ltd., priority 2008, dated 2015):
Non-standard residues stand in square brackets, D forms with d.

Legend:
[1] = test system: transient global ischemia; settings: Carboni et al. 2004; cited from earlier work
[2] = mice treated with 1-methyl-4-phenyl tetrahydropyridine; cited from earlier work
[3] = test system: primary embryonic cultures and differentiated PC12 cells; settings: at dosages that inhibit activation of JNKs; after trophic withdrawal; cited from earlier work
[4] = test system: cultured chick embryonic dorsal root ganglion, sympathetic, ciliary and motor neurons; settings: Borasio et al. 1998; cited from earlier work
TNBS-induced colitis [5] = experiment: TNBS-induced colitis (IBD study) in BALB/c mice, Example 12; assay type: in vivo; settings: for clinical score: XG-102 any dose, route or schedule, Sulfasalazine 10 mg/kg PO daily
Experimental: b) Constitution of test groups and dose levels • The table below lists the experimental groups comprising the study.
c) Test Procedures • Colitis was induced by administration of TNBS […], as a single or repeated daily doses (see above).
d) Observations and Examinations • i) Clinical signs • Throughout the duration of the above experiment, careful clinical examinations were carried out and recorded. Observations included changes external appearance, e.g. of the skin, fur, eyes, mucous membranes, occurrence of secretions and excretions (e.g. diarrhea), and autonomic activity. Changes in gait, posture and response to handling, as well as the presence of bizarre behavior, tremors, convulsions, sleep and coma were also noted. • ii) Body weights • Determination of individual body weight of animals was made on a daily basis. • iii) Clinical assessment of colitis • Body weight, stool consistency and bleeding per rectum were all recorded daily and served as the parameters of disease severity score:
• iv) Gross pathology of the colon • On the last day of the experiment, animals were euthanized and the colon was removed for gross pathology evaluation according to the following score: […]

TC-3 cell cultures = experiment: Cellular import and intracellular persistence of fluorescein-labeled peptides in TC-3 cells; assay type: cell-based; settings: 1 μM
Experimental: The ability of the L- and D-enantiomeric forms of TAT and TAT-IB1(s) peptides (“TAT-IB peptides”) to enter cells was evaluated. L-TAT, D-TAT, L-TAT-IB1(s), and D-TAT-IB1(s) peptides [SEQ ID NOs: 5, 6, 9 and 12, respectively] were labeled by N-terminal addition of a glycine residue conjugated to fluorescein. Labeled peptides (1 μM) were added to TC-3 cell cultures, which were maintained as described in Example 3. At predetermined times cells were washed with PBS and fixed for five minutes in ice-cold methanol-acetone (1:1) before being examined under a fluorescence microscope. Fluorescein-labeled BSA (1 μM, 12 moles/mole BSA) was used as a control.
Little to no signal was present at 48 hours.

murine macrophages = experiment: LPS-induced cytokine release in murine macrophages; assay type: cell-based
TC-3 cells = experiment: IL-1 induced pancreatic beta-cell death in TC-3 cells treated with peptides; assay type: cell-based; settings: one single addition 1 μM
Experimental: Inhibition of IL-1 induced pancreatic beta-cell death by the D-TAT-IB1(s) peptide was analyzed. TC-3 cells were incubated as described above for 30 minutes with one single addition of the indicated peptides (1, μM), then IL-1 (10 ng/ml) was added.
Apoptotic cells were then counted after two days of incubation with IL-1 by use of Propidium Iodide and Hoechst 33342 nuclear staining. A minimum of 1,000 cells were counted for each experiment.
Long term inhibition of IL-1P induced cell-death by the D-TAT-IB1 peptide was also analyzed. TC-3 cells were incubated as above for 30 minutes with one single addition of the indicated peptides (1 μM), then IL-1 (10 ng/ml) was added, followed by addition of the cytokine every two days. Apoptotic cells were then counted after 15 days of incubation with IL-1 by use of propidium iodide and Hoechst 33342 nuclear staining. […] A minimum of 1.000 cells were counted for each experiment.

Jurkat cells = experiment: PMA & ionomycin-induced cytokine production in Jurkat cells; assay type: cell-based
Text: (§1) XG-102 (SEQ ID NO:11) inhibits cytokine release in both myeloid and lymphoid cell lines, reducing LPS-induced TNFa, IL-6 and MCP-1 release in THP-1 cells (Panels A-C) and PMA & ionomycin-induced IFNg, IL-6 and IL-2 production in Jurkat cells (Panels D-F).

[6] = test system: Primary cultured macrophages; experiment: Incorporation of XG-102 into primary cultured macrophages, detected with a specific antibody; assay type: cell-based; settings: incubated with peptide and extensively washed
Experimental: FIG. 8 Primary cultured macrophages were incubated with XG-102 (SEQ ID NO: 11) and extensively washed.

[7] = test system: recombinant JNK1, JNK2 and JNK3; experiment: Solid phase kinase assay, phosphorylation of c-Jun, ATF2 and Elk1 by recombinant JNKs; assay type: biochemical; settings: GST-Jun (aa 1-73), 0-250 μM dosage study
Experimental: The effects of the peptides on JNKs-mediated phosphorylation of their target transcription factors were investigated in vitro. Recombinant and non activated JNK1, JNK2 and JNK3 were produced using a TRANSCRIPTION AND TRANSLATION rabbit reticulocyte lysate kit (Promega) and used in solid phase kinase assays with c-Jun, ATF2 and Elk1, either alone or fused to glutathione-S-transferase (GST), as substrates. Dose response studies were performed wherein L-TAT or L-TAT-IB1(s) peptides (0-25 μM) were mixed with the recombinant JNK1, JNK2, or JNK3 kinases in reaction buffer (20 mM Tris-acetate, 1 mM EGTA, 10 mM p-nitrophenyl-phosphate (pNPP), 5 mM sodium pyrophosphate, 10 mM p-glycerophosphate, 1 mM dithiothreitol) for 20 minutes. The kinase reactions were then initiated by the addition of 10 mM MgCl2 and 5 pCi ^33P-dATP and 1 μg of either GST-Jun (aa 1-89), GST-AFT2 (aa 1-96) or GST-ELK1 (aa 307-428). GST-fusion proteins were purchased from Stratagene (La Jolla, Calif.).
Ten μL of glutathione-agarose beads were also added to the mixture. Reaction products were then separated by SDS-PAGE on a denaturing 10% polyacrylamide gel. Gels were dried and subsequently exposed to X-ray films (Kodak). […] The ability of D-TAT, D-TAT-IB1(s) and L-TAT-IB1(s) peptides (0-250 μM dosage study) to inhibit GST-Jun (aa 1-73) phosphorylation by recombinant JNK1, JNK2, and JNK3 by were analyzed as described above. Overall, D-TAT-IB1(s) peptide decreased JNK-mediated phosphorylation of c-Jun, but at levels approximately 10-20 fold less efficiently than L-TAT-IB1(s).

TNBS-induced colitis [8] = experiment: TNBS-induced colitis in mice (FIG. 13); assay type: in vivo; settings: subcutaneous, 50 and 100 mg/kg
Text: JNK is activated in macrophages and lymphocytes of patients with inflammatory bowel disease, a response correlated with increased TNFa, IL-6 and IFNg production in lesions.

[9] = test system: primary lymphoid and myeloid cells; experiment: Cytotoxicity in primary cells (FIG. 12 Panel F); assay type: cell-based, murine
THP-1 cells = experiment: LPS-induced cytokine and chemokine release in THP-1 cells; assay type: cell-based
Text: as §1

murine T cells = experiment: PMA & ionomycin-induced cytokine production in murine T cells; assay type: cell-based
JNK = settings: JBDs; Dickens et al. Science 277: 693 (1997); cited from earlier work

N#CC(c1ccnc(NCCc2cccnc2)n1)c1nc2ccccc2s1 (stereo not shown) [AS601245]
delayed loss of hippocampal CA1 neurons [1]: significant protection

CCSCc1ccc2c(c1)c1c3c(c4c5cc(CSCC)ccc5n5c4c1n2[C@H]1C[C@](O)(C(=O)OC)[C@]5(C)O1)CNC3=O [CEP-1347]
neuronal survival [2]: promotes neuronal survival | neuronal survival [3]: promotes neuronal survival | long term-survival of neurons [4]: promote long term-survival

O=C(O)c1cc(/N=N/c2ccc(S(=O)(=O)Nc3ccccn3)cc2)ccc1O [Sulfasalazine, reference compound]
clinical score (TNBS-induced colitis [5]): reduction in the clinical score | gross pathology score of the colon (TNBS-induced colitis [5]; end of study, 10 mg/kg PO daily): effective in reducing the gross pathology completely

Fluorescein-labeled BSA: Fluorescein-labeled BSA (1 μM, 12 moles/mole BSA) used as a control [reference compound]
entry into cells (TC-3 cell cultures): did not enter the cells

NH2-DQSRPVQPFLNLTTPRKPRPPRRRQRRKKRG-COOH (H-[dD][dQ][dS][dR][dP][dV][dQ][dP][dF][dL][dN][dL][dT][dT][dP][dR][dK][dP][dR][dP][dP][dR][dR][dR][dQ][dR][dR][dK][dK][dR]G-OH) [XG-102]
clinical signs (TNBS-induced colitis [5]; 0.01-1000 μg/kg SC or PO, single or daily for 7 days): No abnormalities were observed | disease recovery (conclusion) (TNBS-induced colitis [5]; SC or PO): active in enhancing diseases recovery | clinical score (TNBS-induced colitis [5]): an effect equivalent to or better than the one observed with the commonly used reference drug sulfasalazine | body weights (TNBS induced weight loss) (TNBS-induced colitis [5]; mouse, in vivo): either prevented the weight loss or ameliorated the symptoms and supported recovery | mortality rate (TNBS-induced colitis [5]; whole study): No mortality was recorded | LPS-induced IL-6 release (murine macrophages): reducing | LPS-induced Rantes release (murine macrophages): reducing | LPS-induced TNFa release (murine macrophages): reducing | long term protection from IL-1 induced cell-death, 15 days (TC-3 cells; IL-1 10 ng/ml every two days): able to confer long term (15 day) protection | PMA & ionomycin-induced IFNg production (Jurkat cells): reducing | PMA & ionomycin-induced IL-2 production (Jurkat cells): reducing | PMA & ionomycin-induced IL-6 production (Jurkat cells): reducing | incorporation into primary macrophages [6]: strongly incorporated | decrease of JNK-mediated phosphorylation of c-Jun, fold less efficient than L-TAT-IB1(s) [7]: 10-20 fold | DAI (TNBS-induced colitis [8]): diminishing | protection from TNBS-induced colitis (TNBS-induced colitis [8]): protects mice from TNBS-induced colitis | rectal bleeding (TNBS-induced colitis [8]): diminishing | weight loss (TNBS-induced colitis [8]): diminishing | cytotoxicity at concentrations inhibiting cytokine release [9]: non-cytotoxic concentrations | LPS-induced IL-6 release (THP-1 cells): reducing | LPS-induced MCP-1 release (THP-1 cells): reducing | LPS-induced TNFa release (THP-1 cells): reducing | PMA & ionomycin-induced IFNg production (murine T cells): reducing | PMA & ionomycin-induced TNFa production (murine T cells): reducing | entry into cells (TC-3 cell cultures): efficiently and rapidly (less than five minutes) entered cells

NH2-GRKKRRQRRR-COOH (H-GRKKRRQRRR-OH) [L-TAT]
entry into cells (TC-3 cell cultures): efficiently and rapidly (less than five minutes) entered cells

NH2-IPSPSVEEPHKHRPTTLRLTTLGAQDS-COOH (H-IPSPSVEEPHKHRPTTLRLTTLGAQDS-OH) [IB2-long]
efficiency in binding JNK relative to c-Jun or ATF2 (JNK): approximately 100 fold

NH2-PGTGCGDTYRPKRPTTLNLFPQVPRSQDT-COOH (H-PGTGCGDTYRPKRPTTLNLFPQVPRSQDT-OH) [IB1-long]
efficiency in binding JNK relative to c-Jun or ATF2 (JNK): approximately 100 fold

NH2-RRRQRRKKRG-COOH (D-amino acids; Description of sequence Peptide D-TAT (see Table 1))
entry into cells (TC-3 cell cultures): efficiently and rapidly (less than five minutes) entered cells

NH2-TDQSRPVQPFLNLTTPRKPRYTDPPRRRQRRKKRG-COOH (HELM PEPTIDE1{[dT].[dD].[dQ].[dS].[dR].[dP].[dV].[dQ].[dP].[dF].[dL].[dN].[dL].[dT].[dT].[dP].[dR].[dK].[dP].[dR].[dY].[dT].[dD].[dP].[dP].[dR].[dR].[dR].[dQ].[dR].[dR].[dK].[dK].[dR].G}$$$$V2.0; SMILES CC(C)C[C@@H](NC(=O)[C@@H](Cc1ccccc1)NC(=O)[C@H]1CCCN1C(=O)[C@@H](CCC(N)=O)NC(=O)[C@H](NC(=O)[C@H]1CCCN1C(=O)[C@@H](CCCNC(=N)N)NC(=O)[C@@H](CO)NC(=O)[C@@H](CCC(N)=O)NC(=O)[C@@H](CC(=O)O)NC(=O)[C@H](N)[C@H](C)O)C(C)C)C(=O)N[C@H](CC(N)=O)C(=O)N[C@H](CC(C)C)C(=O)N[C@@H](C(=O)N[C@@H](C(=O)N1CCC[C@@H]1C(=O)N[C@H](CCCNC(=N)N)C(=O)N[C@H](CCCCN)C(=O)N1CCC[C@@H]1C(=O)N[C@H](CCCNC(=N)N)C(=O)N[C@H](Cc1ccc(O)cc1)C(=O)N[C@@H](C(=O)N[C@H](CC(=O)O)C(=O)N1CCC[C@@H]1C(=O)N1CCC[C@@H]1C(=O)N[C@H](CCCNC(=N)N)C(=O)N[C@H](CCCNC(=N)N)C(=O)N[C@H](CCCNC(=N)N)C(=O)N[C@H](CCC(N)=O)C(=O)N[C@H](CCCNC(=N)N)C(=O)N[C@H](CCCNC(=N)N)C(=O)N[C@H](CCCCN)C(=O)N[C@H](CCCCN)C(=O)N[C@H](CCCNC(=N)N)C(=O)NCC(=O)O)[C@H](C)O)[C@H](C)O)[C@H](C)O) [D-TAT-IB1]
IL-1 induced apoptosis after two days (TC-3 cells; IL-1 10 ng/ml): decreased IL-1 induced apoptosis to a similar extent as L-TAT-IB peptides
